Values quoted from earlier work as cited in patent US20240408074A1, “METHODS FOR THE TREATMENT AND PREVENTION OF NON-VIRAL TICK-BORNE DISEASES AND SYMPTOMS THEREOF OF” (60 DEGREES PHARMACEUTICALS LLC, priority 2023, published 2024).

Columns and labels:
P. falciparum [1] = conditions: 250 mg/day, cited from earlier work
[2] = system: Trypanosome brucei blood stage forms; conditions: exposure for 90 minutes; cited from earlier work
Leptospira = conditions: exposure for as little as 30 min; cited from earlier work
Babesia parasites = conditions: 2 h; formation of large vacuoles; cited from earlier work
[3] = system: P. falciparum gametocytes; conditions: Example 5; single dose of primaquine combined with dihydroartemisinin/piperaquine, or dihydroartemisinin-piperaquine alone; cited from earlier work
P. falciparum [4] = conditions: in vivo; cited from earlier work
Trypanosoma brucei = conditions: extracellular blood stage forms; cited from earlier work
B. microti = conditions: one patient; prior rituximab; tafenoquine at approved malaria prevention dose as monotherapy for six weeks; cited from earlier work
Leishmania major = conditions: intracellular amastigote forms; cited from earlier work
[5] = 600 mg over three days then 200 mg weekly for up to one year; reversible, not clinically significant; cited from earlier work
B. rodhaini = conditions: cited from earlier work
Plasmodium falciparum = conditions: 600 mg loading dose then 200 mg; parasite load three days after last dose; all control subjects developed parasitemia; cited from earlier work
[6] = system: free-living gram-negative bacteria and free-living gram-positive bacteria; conditions: gram-negative versus gram-positive; cited from earlier work
Plasmodium vivax = conditions: 400 mg/day for three days, cited from earlier work
[7] = immunocompromised SCID mice, single dose of 20 mg/kg

SMILES: CC[C@H]1OC(=O)[C@H](C)[C@@H](O[C@H]2C[C@@](C)(OC)[C@@H](O)[C@H](C)O2)[C@H](C)[C@@H](O[C@@H]2O[C@H](C)C[C@H](N(C)C)[C@H]2O)[C@](C)(O)C[C@@H](C)CN(C)[C@H](C)[C@@H](O)[C@]1(C)O [Azithromycin]
- Protective Efficacy (%) Relative to Placebo, PF/Non-immune or Malaria-naïve (P. falciparum [1]; non-immune or malaria-naïve (Taylor)): 72% (Taylor)
- Protective Efficacy (%) Relative to Placebo, Pf/Semi-Immune (P. falciparum [1]; semi-immune (Anderson)): 83% (Anderson)

SMILES: OO [hydrogen peroxide]
- concentration that kills blood stage forms [2]: approximately 140 microM
- concentration that killed various serovars (Leptospira): < 180 µM
- concentration that kills Babesia parasites in vitro (Babesia parasites): 100 µM

SMILES: COc1cc(NC(C)CCCN)c2ncccc2c1 (stereo not shown) [primaquine]
- time until gametocytes non-infectious to mosquitoes at a level statistically lower than reference values [3]: two days post-dosing

SMILES: COc1cc(C)c2c(Oc3cccc(C(F)(F)F)c3)c(OC)cc(NC(C)CCCN)c2n1 (stereo not shown) [tafenoquine, N(4)-[2,6-Dimethoxy-4-methyl-5-[3-(trifluoromethyl)phenoxy]quinolin-8-yl]pentane-1,4-diamine]
- activity against the blood stages of P. falciparum (P. falciparum [4]): quite effective
- potency of killing (Trypanosoma brucei): < 4 µM
- outcome of treatment in the patient (B. microti): cured
- potency of killing (Leishmania major): < 4 µM
- specific adverse events with increased risk [5]: gastrointestinal effects [mild to moderate] and cornea verticillata
- parasitemia (B. rodhaini; Balb/c (immunocompetent) mice, single dose of 20 mg/kg): cleared parasitemia
- survival (B. rodhaini; Balb/c (immunocompetent) mice, single dose of 20 mg/kg, infection uniformly lethal in untreated animals): 100%
- death (B. rodhaini; [7]): delayed not prevent
- parasitemia and relapses (B. rodhaini; [7]): cleared initial parasitemia but did not prevent relapses
- vacuole formation in B. rodhaini blood stages (B. rodhaini; mice, single dose of 20 mg/kg): induces the formation of large vacuoles
- antioxidant enzymes in B. rodhaini (B. rodhaini; mice, single dose treatment): upregulated
- clearance and cure of Babesia (B. rodhaini; one and three doses, immunocompromised mice and dogs): sufficient to clear and cure Babesia
- subjects who developed blood stage parasitemia (Plasmodium falciparum): none
- activity against free-living bacteria [6]: much less active against free-living gram-negative bacteria than free-living gram-positive bacteria
- day by which all patients cleared blood stage parasites (Plasmodium vivax; monotherapy): ≤ 8 days
- relapses during the follow up period (Plasmodium vivax; patients for whom data was available): no relapses
